In patent publication US12157730B2, “Heteroaryl derivative, method for producing same, and pharmaceutical composition comprising same as effective component” (VORONOI INC., priority 2019, dated 2024):

Target: T1, Ba/F3 cell EGFR Exon20 ins NPH (Homo sapiens, UniProt P00533, INS773NPH)
T1 construct: expressed in transfected cells; host or cells: Ba/F3
Experiment: Ba/F3 cell proliferation suppression, EGFR Exon20 ins NPH
Assay type: cell-based
Details: GI50 class; Ba/F3 cell line with NPH inserted at Exon20 of EGFR; 72 hours
Summary of the method: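 Growth suppression determined as GI50 following 72 h exposure across 12 concentrations up to 50 um, with viability by luminescent ATP assay (CellTiter-Glo).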

Row | Ba/F3 (NPH) Activity | SMILES
1 | A (GI50 < 50 nM) | C=CC(=O)Nc1cc(Nc2cc(N3OCC[C@@H]3c3ccc(F)c(Cl)c3)ncn2)c(OC)cc1N1CCC(N(C)C)CC1 [compound 755, N-(5-((6-((R)-3-(3-chloro-4-fluorophenyl)isoxazolidine-2-yl)pyrimidine-4-yl)amino)-2-(4-(dimethylamino)piperidine-1-yl)-4-methoxyphenyl) acrylamide]
2 | B (50 nM ≤ GI50 < 500 nM) | C=CC(=O)Nc1cc(Nc2cc(N3OCC[C@@H]3c3ccc(F)c(Cl)c3F)ncn2)c(OC)cc1N1C[C@@H](C)O[C@@H](C)C1 [compound 667, N-(5-((6-((R)-3-(3-chloro-2,4-difluorophenyl)isoxazolidine-2-yl)pyrimidine-4-yl)amino)-2-((2S,6R)-2,6-dimethylmorpholino)-4-methoxyphenyl) acrylamide]
3 | A (GI50 < 50 nM) | C=CC(=O)Nc1cc(Nc2cc(N3OCC[C@@H]3c3cccc(Cl)c3)ncn2)c(OC)cc1N1CCC(N2CCN(C)CC2)CC1 [compound 416]
4 | A (GI50 < 50 nM) | C=CC(=O)Nc1cc(Nc2cc(N3OCC[C@@H]3c3cc(F)ccc3F)ncn2)c(OC)cc1N1C[C@@H]2C[C@H]1CO2 [compound 329, N-(2-((1S,4S)-2-oxa-5-azabicyclo[2.2.1]heptane-5-yl)-5-((6-((R)-3-(2,5-difluorophenyl)isoxazolidine-2-yl)pyrimidine-4-yl)amino)-4-methoxyphenyl) acrylamide]
5 | A (GI50 < 50 nM) | C=CC(=O)Nc1cc(Nc2cc(N3OCC[C@@H]3c3ccc(Cl)c(F)c3)ncn2)c(OC)cc1N1CCC(N2CCN(C3COC3)CC2)CC1 [Example 83, N-(5-((6-((R)-3-(4-chloro-3-fluorophenyl)isoxazolidine-2-yl)pyrimidine-4-yl)amino)-4-methoxy-2-(4-(4-(oxetane-3-yl)piperazine-1-yl)piperidine-1-yl)phenyl)acrylamide]
6 | A (GI50 < 50 nM) | C=CC(=O)Nc1cc(Nc2cc(N3OCC[C@@H]3c3cccc(Cl)c3F)ncn2)c(OC)cc1N1CCC(N2CCN(C)CC2)CC1 [compound 747, N-(5-((6-((R)-3-(3-chloro-2-fluorophenyl)isoxazolidine-2-yl)pyrimidine-4-yl)amino)-4-methoxy-2-(4-(4-methylpiperazine-1-yl)piperidine-1-yl)phenyl) acrylamide]
7 | A (GI50 < 50 nM) | C=CC(=O)Nc1cc(Nc2cc(N3OCC[C@@H]3c3ccc(F)c(F)c3F)ncn2)c(OC)cc1N1CCC(N2CCN(C3CCC3)CC2)CC1 [Example 187, N-(2-(4-(4-cyclobutylpiperazine-1-yl)piperidine-1-yl)-4-methoxy-5-((6-((R)-3-(2,3,4-trifluorophenyl)isoxazolidine-2-yl)pyrimidine-4-yl)amino)phenyl)acrylamide]
8 | A (GI50 < 50 nM) | C#Cc1cccc([C@H]2CCON2c2cc(Nc3cc(NC(=O)C=C)c(N4CCC(N5C[C@@H]6C[C@H]5CO6)CC4)cc3OC)ncn2)c1 [compound 618, N-(2-(4-((1S,4S)-2-oxa-5-azabicyclo[2.2.1]heptane-5-yl)piperidine-1-yl)-5-((6-((R)-3-(3-ethynylphenyl)isoxazolidine-2-yl)pyrimidine-4-yl)amino)-4-methoxyphenyl) acrylamide]
9 | A (GI50 < 50 nM) | C=CC(=O)Nc1cc(Nc2cc(N3OCC[C@@H]3c3ccc(F)c(Cl)c3)ncn2)c(OC)cc1N1CCC(N2CCN(CC3CC3)CC2)CC1 [Example 94, N-(5-((6-((R)-3-(3-chloro-4-fluorophenyl)isoxazolidine-2-yl)pyrimidine-4-yl)amino)-2-(4-(4-(cyclopropylmethyl)piperazine-1-yl)piperidine-1-yl)-4-methoxyphenyl) acrylamide]
10 | A (GI50 < 50 nM) | C=CC(=O)Nc1cc(Nc2cc(N3OCC[C@@H]3c3ccc(Cl)c(F)c3)ncn2)c(OC)cc1N1CCC(N2CCN(C3CC3)CC2)CC1 [Example 63, N-(5-((6-((R)-3-(4-chloro-3-fluorophenyl)isoxazolidine-2-yl)pyrimidine-4-yl)amino)-2-(4-(4-cyclopropylpiperazine-1-yl)piperidine-1-yl)-4-methoxyphenyl) acrylamide]
11 | A (GI50 < 50 nM) | C=CC(=O)Nc1cc(Nc2cc(N3OCC[C@@H]3c3cccc(Cl)c3)ncn2)c(OC)cc1N1CC[C@@H](N2CCOCC2)C1 [compound 465, N-(5-((6-((R)-3-(3-chlorophenyl)isoxazolidine-2-yl)pyrimidine-4-yl)amino)-4-methoxy-2-((R)-3-morpholinopyrolidine-1-yl)phenyl)acrylamide]
12 | A (GI50 < 50 nM) | C=CC(=O)Nc1cc(Nc2cc(N3OCC[C@@H]3c3cc(F)cc(F)c3)ncn2)c(OC)cc1N1CCOCC1 [compound 823, N-(5-((6-((R)-3-(3,5-difluorophenyl)isoxazolidine-2-yl)pyrimidine-4-yl)amino)-4-methoxy-2-morpholinophenyl) acrylamide]
13 | B (50 nM ≤ GI50 < 500 nM) | C=CC(=O)Nc1cc(Nc2cc(N3OCC[C@@H]3c3c(F)ccc(F)c3F)ncn2)c(OC)cc1N1CCN(CC)CC1 [compound 631, N-(2-(4-ethylpiperazine-1-yl)-4-methoxy-5-((6-((R)-3-(2,3,6-trifluorophenyl)isoxazolidine-2-yl)pyrimidine-4-yl)amino)phenyl)acrylamide]
14 | B (50 nM ≤ GI50 < 500 nM) | C=CC(=O)Nc1cc(Nc2cc(N3OCC[C@@H]3c3cc(F)cc(F)c3)ncn2)c(OC)cc1N1CCC(N2CCNCC2)CC1 [compound 754, N-(5-((6-((R)-3-(3,5-difluorophenyl)isoxazolidine-2-yl)pyrimidine-4-yl)amino)-4-methoxy-2-(4-(piperazine-1-yl)piperidine-1-yl)phenyl) acrylamide]
15 | C (500 nM ≤ GI50 < 5000 nM) | C=CC(=O)Nc1cc(Nc2cc(N3OCC[C@H]3c3c(F)cccc3F)ncn2)c(OC)cc1N1CCN(CC)CC1 [compound 895, N-(5-((6-((S)-3-(2,6-difluorophenyl)isoxazolidine-2-yl)pyrimidine-4-yl)amino)-2-(4-ethylpiperazine-1-yl)-4-methoxyphenyl) acrylamide]
16 | A (GI50 < 50 nM) | C=CC(=O)Nc1cc(Nc2cc(N3OCC[C@@H]3Cc3ccccc3)ncn2)c(OC)cc1N1CCC(N2CCOCC2)CC1 [compound 965, N-(5-((6-((S)-3-benzylisoxazolidine-2-yl)pyrimidine-4-yl)amino)-4-methoxy-2-(4-morpholinopiperidine-1-yl)phenyl)acrylamide]
17 | A (GI50 < 50 nM) | C=CC(=O)Nc1cc(Nc2cc(N3OCC[C@@H]3c3cccc(Cl)c3)ncn2)c(OC)cc1N(C)CCN(C)C [compound 359, N-(5-((6-((R)-3-(3-chlorophenyl)isoxazolidine-2-yl)pyrimidine-4-yl)amino)-2-((2-(dimethylamino)ethyl)(methyl)amino)-4-methoxyphenyl) acrylamide]
18 | A (GI50 < 50 nM) | C=CC(=O)Nc1cc(Nc2cc(N3OCC[C@@H]3c3cccc(Cl)c3F)ncn2)c(OC)cc1N1CCC(N2C[C@@H](C)O[C@@H](C)C2)CC1 [compound 706, N-(5-((6-((R)-3-(3-chloro-2-fluorophenyl)isoxazolidine-2-yl)pyrimidine-4-yl)amino)-2-(4-((2S,6R)-2,6-dimethylmorpholino)piperidine-1-yl)-4-methoxyphenyl) acrylamide]
19 | A (GI50 < 50 nM) | C=CC(=O)Nc1cc(Nc2cc(N3OCC[C@@H]3c3cc(F)cc(Cl)c3)ncn2)c(OC)cc1N1CCC(N2CCN(C3CC3)CC2)CC1 [Example 163, N-(5-((6-((R)-3-(3-chloro-5-fluorophenyl)isoxazolidine-2-yl)pyrimidine-4-yl)amino)-2-(4-(4-cyclopropylpiperazine-1-yl)piperidine-1-yl)-4-methoxyphenyl) acrylamide]
20 | A (GI50 < 50 nM) | C=CC(=O)Nc1cc(Nc2cc(N3OCC[C@@H]3c3ccc(F)cc3)ncn2)c(OC)cc1N1CCC(N2C[C@@H](C)O[C@@H](C)C2)CC1 [compound 814, N-(2-(4-((2S,6R)-2,6-dimethylmorpholino)piperidine-1-yl)-5-((6-((R)-3-(4-fluorophenyl)isoxazolidine-2-yl)pyrimidine-4-yl)amino)-4-methoxyphenyl) acrylamide]
21 | A (GI50 < 50 nM) | C=CC(=O)Nc1cc(Nc2cc(N3OCC[C@@H]3Cc3cccc(Cl)c3Cl)ncn2)c(OC)cc1N1CCC(N2CCO[C@H](C)C2)CC1 [compound 1011, N-(5-((6-((S)-3-(2,3-dichlorobenzyl)isoxazolidine-2-yl)pyrimidine-4-yl)amino)-4-methoxy-2-(4-((R)-2-methylmorpholino)piperidine-1-yl)phenyl) acrylamide]
22 | A (GI50 < 50 nM) | C=CC(=O)Nc1cc(Nc2cc(N3OCC[C@@H]3c3ccc(F)c(Cl)c3)ncn2)c(OC)cc1N1CCC(N2C[C@H](C)N(C3CC3)C[C@@H]2C)CC1 [Example 121, N-(5-((6-((R)-3-(3-chloro-4-fluorophenyl)isoxazolidine-2-yl)pyrimidine-4-yl)amino)-2-(4-((2S,5S)-4-cyclopropyl-2,5-dimethylpiperazine-1-yl)piperidine-1-yl)-4-methoxyphenyl) acrylamide]
23 | A (GI50 < 50 nM) | C=CC(=O)Nc1cc(Nc2cc(N3OCC[C@@H]3c3cccc(OC)c3)ncn2)c(OC)cc1N1CCC(N2CCN(CCC)CC2)CC1 [compound 549, N-(4-methoxy-5-((6-((R)-3-(3-methoxyphenyl)isoxazolidine-2-yl)pyrimidine-4-yl)amino)-2-(4-(4-propylpiperazine-1-yl)piperidine-1-yl)phenyl) acrylamide]
24 | B (50 nM ≤ GI50 < 500 nM) | C=CC(=O)Nc1cc(Nc2cc(N3OCC[C@@H]3c3cccc(C(F)(F)F)c3)ncn2)c(OC)cc1N1CCN(C2CC2)CC1 [compound 940, N-(2-(4-cyclopropylpiperazine-1-yl)-4-methoxy-5-((6-((R)-3-(3-(trifluoromethyl)pheyyl)isoxazolidine-2-yl)pyrimidine-4-yl)amino)phenyl) acrylamide]
